Laboratory results published in ChEMBL document CHEMBL3885881, “DrugMatrix”.

Organism: Rattus norvegicus
Experiment: DrugMatrix - Regimen: Daily Repeat
Assay type: toxicity, organism-based, Sprague-Dawley
Design: regimen Daily Repeat, gender Male, age 6-8 weeks
Conditions: in vivo, sc, route subcutaneous, […]; for ABSOLUTE BASOPHIL / ABSOLUTE EOSINOPHIL / ABSOLUTE LYMPHOCYTE / ABSOLUTE MONOCYTE / ABSOLUTE SEGMENTED NEUTROPHIL / BASOPHIL / EOSINOPHIL / ERYTHROCYTE COUNT / HEMATOCRIT / HEMOGLOBIN / LEUKOCYTE COUNT / LYMPHOCYTE / MEAN CORPUSCULAR HEMOGLOBIN / MEAN CORPUSCULAR HEMOGLOBIN CONCENTRATION / MEAN CORPUSCULAR VOLUME / MONOCYTE / NEUTROPHIL / NUCLEATED RED BLOOD CELLS / PLATELET COUNT: tissue Blood; for ALANINE AMINOTRANSFERASE / ALBUMIN / ALKALINE PHOSPHATASE / ASPARTATE AMINOTRANSFERASE / BLOOD UREA NITROGEN / CARBON DIOXIDE / CHLORIDE / CHOLESTEROL / CREATINE PHOSPHOKINASE / CREATININE / GLUCOSE / LACTATE DEHYDROGENASE / LIPASE / PHOSPHORUS / POTASSIUM / SODIUM / TOTAL BILIRUBIN / TOTAL PROTEIN / URIC ACID: tissue Plasma
[1] = 0 mg/kg, 72 h, dose level Control, time 3 day
[2] = 0 mg/kg, 120 h, dose level Control, time 5 day
[3] = 29 mg/kg, 72 h, dose level Low, time 3 day

Nc1nc2c(ncn2CCC(CO)CO)c(=O)[nH]1 [PENCICLOVIR]
ABSOLUTE BASOPHIL [1]: 0 CELLS/uL | ABSOLUTE EOSINOPHIL [1]: 42.67 CELLS/uL | ABSOLUTE LYMPHOCYTE [1]: 10202 CELLS/uL | ABSOLUTE MONOCYTE [1]: 261.5 CELLS/uL | ABSOLUTE SEGMENTED NEUTROPHIL [1]: 2193.83 CELLS/uL | BASOPHIL [1]: 0% | EOSINOPHIL [1]: 0.33% | ERYTHROCYTE COUNT [1]: 5.63 x10E6/uL | HEMATOCRIT [1]: 35.35% | HEMOGLOBIN [1]: 13.07 G/DL | LEUKOCYTE COUNT [1]: 12.7 x10E3/uL | LYMPHOCYTE [1]: 81.17% | MEAN CORPUSCULAR HEMOGLOBIN [1]: 23.23 pg | MEAN CORPUSCULAR HEMOGLOBIN CONCENTRATION [1]: 36.97 G/DL | MEAN CORPUSCULAR VOLUME [1]: 62.82 fL | MONOCYTE [1]: 2% | NEUTROPHIL [1]: 16.5% | NUCLEATED RED BLOOD CELLS [1]: 0 /100WBC | PLATELET COUNT [1]: 1180.33 x10E3/uL | ALANINE AMINOTRANSFERASE [1]: 48.67 u/L | ALBUMIN [1]: 4.08 G/DL | ALKALINE PHOSPHATASE [1]: 360.67 u/L | ASPARTATE AMINOTRANSFERASE [1]: 85.5 u/L | BLOOD UREA NITROGEN [1]: 17.83 mg/dL | CARBON DIOXIDE [1]: 26.17 mmol/L | CHLORIDE [1]: 101.83 MEQ/L | CHOLESTEROL [1]: 71 mg/dL | CREATINE PHOSPHOKINASE [1]: 515.17 u/L | CREATININE [1]: 0.22 mg/dL | GLUCOSE [1]: 192.5 mg/dL | LACTATE DEHYDROGENASE [1]: 214.67 u/L | LIPASE [1]: 8.5 u/L | PHOSPHORUS [1]: 12.95 mg/dL | POTASSIUM [1]: 6.39 MEQ/L | SODIUM [1]: 142.38 MEQ/L | TOTAL BILIRUBIN [1]: 0.18 mg/dL | TOTAL PROTEIN [1]: 5.95 G/DL | URIC ACID [1]: 1.83 mg/dL | ABSOLUTE BASOPHIL [2]: 0 CELLS/uL | ABSOLUTE EOSINOPHIL [2]: 188.5 CELLS/uL | ABSOLUTE LYMPHOCYTE [2]: 12360.83 CELLS/uL | ABSOLUTE MONOCYTE [2]: 64.33 CELLS/uL | ABSOLUTE SEGMENTED NEUTROPHIL [2]: 1986.33 CELLS/uL | BASOPHIL [2]: 0% | EOSINOPHIL [2]: 1.33% | ERYTHROCYTE COUNT [2]: 5.52 x10E6/uL | HEMATOCRIT [2]: 35.82% | HEMOGLOBIN [2]: 13.25 G/DL | LEUKOCYTE COUNT [2]: 14.6 x10E3/uL | LYMPHOCYTE [2]: 84.5% | MEAN CORPUSCULAR HEMOGLOBIN [2]: 24.05 pg | MEAN CORPUSCULAR HEMOGLOBIN CONCENTRATION [2]: 36.98 G/DL | MEAN CORPUSCULAR VOLUME [2]: 64.97 fL | MONOCYTE [2]: 0.5% | NEUTROPHIL [2]: 13.67% | NUCLEATED RED BLOOD CELLS [2]: 0 /100WBC | PLATELET COUNT [2]: 1297.83 x10E3/uL | ALANINE AMINOTRANSFERASE [2]: 51.17 u/L | ALBUMIN [2]: 4.08 G/DL | ALKALINE PHOSPHATASE [2]: 393.17 u/L | ASPARTATE AMINOTRANSFERASE [2]: 111 u/L | BLOOD UREA NITROGEN [2]: 18.17 mg/dL | CARBON DIOXIDE [2]: 25 mmol/L | CHLORIDE [2]: 105.17 MEQ/L | CHOLESTEROL [2]: 65.5 mg/dL | CREATINE PHOSPHOKINASE [2]: 911.5 u/L | CREATININE [2]: 0.21 mg/dL | GLUCOSE [2]: 183 mg/dL | LACTATE DEHYDROGENASE [2]: 189 u/L | LIPASE [2]: 8.33 u/L | PHOSPHORUS [2]: 12.78 mg/dL | POTASSIUM [2]: 6.05 MEQ/L | SODIUM [2]: 144.57 MEQ/L | TOTAL BILIRUBIN [2]: 0.25 mg/dL | TOTAL PROTEIN [2]: 5.83 G/DL | URIC ACID [2]: 1.58 mg/dL | ABSOLUTE BASOPHIL [3]: 0 CELLS/uL | ABSOLUTE EOSINOPHIL [3]: 232.67 CELLS/uL | ABSOLUTE LYMPHOCYTE [3]: 11739.33 CELLS/uL | ABSOLUTE MONOCYTE [3]: 92.67 CELLS/uL | ABSOLUTE SEGMENTED NEUTROPHIL [3]: 1668.67 CELLS/uL | BASOPHIL [3]: 0% | EOSINOPHIL [3]: 1.67% | ERYTHROCYTE COUNT [3]: 5.23 x10E6/uL | HEMATOCRIT [3]: 33.7% | HEMOGLOBIN [3]: 12.47 G/DL | LEUKOCYTE COUNT [3]: 13.73 x10E3/uL | LYMPHOCYTE [3]: 85.67% | MEAN CORPUSCULAR HEMOGLOBIN [3]: 23.87 pg | MEAN CORPUSCULAR HEMOGLOBIN CONCENTRATION [3]: 36.97 G/DL | MEAN CORPUSCULAR VOLUME [3]: 64.5 fL | MONOCYTE [3]: 0.67% | NEUTROPHIL [3]: 12% | NUCLEATED RED BLOOD CELLS [3]: 0 /100WBC | PLATELET COUNT [3]: 1318 x10E3/uL | ALANINE AMINOTRANSFERASE [3]: 47 u/L | ALBUMIN [3]: 4.03 G/DL | ALKALINE PHOSPHATASE [3]: 451.67 u/L | ASPARTATE AMINOTRANSFERASE [3]: 88.67 u/L | BLOOD UREA NITROGEN [3]: 15 mg/dL | CARBON DIOXIDE [3]: 28 mmol/L | CHLORIDE [3]: 104.67 MEQ/L | CHOLESTEROL [3]: 64 mg/dL | CREATINE PHOSPHOKINASE [3]: 727.67 u/L | CREATININE [3]: 0.21 mg/dL | GLUCOSE [3]: 162.33 mg/dL | LACTATE DEHYDROGENASE [3]: 101 u/L | LIPASE [3]: 8.33 u/L | PHOSPHORUS [3]: 13 mg/dL | POTASSIUM [3]: 6.56 MEQ/L | SODIUM [3]: 146.33 MEQ/L | TOTAL BILIRUBIN [3]: 0.2 mg/dL | TOTAL PROTEIN [3]: 5.9 G/DL | URIC ACID [3]: 1.7 mg/dL
